From paper PMC7411887, “New Paracyclophanylthiazoles with Anti-Leukemia Activity: Design, Synthesis, Molecular Docking, and Mechanistic Studies” (Molecules, 2020)

Assays:
Experiment in all cases: NCI single-dose screen (SRB)
Type in all cases: cell-based
CAKI-1 = conditions: Homo sapiens; Renal Cancer CAKI-1; 10^−5 M; read-out: Growth inhibition percentage
How it was run: (§1)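 Read-out is percentage growth of treated cells relative to untreated controls, determined by SRB protein-dye staining and spectrophotometry. Cultures received test compound at 10^−5 M for 48 h, in three repeat experiments.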

SW-620 = conditions: Homo sapiens; Colon Cancer SW-620; 10^−5 M; read-out: Growth inhibition percentage
How it was run: as §1

NCI/ADR-RES = conditions: Homo sapiens; Ovarian Cancer NCI/ADR-RES; 10^−5 M; read-out: Growth inhibition percentage
How it was run: as §1

SK-OV-3 = conditions: Homo sapiens; Ovarian Cancer SK-OV-3; 10^−5 M; read-out: Growth inhibition percentage
How it was run: as §1

NCI-H460 = conditions: Homo sapiens; Non-Small-Cell Lung Cancer NCI-H460; 10^−5 M; read-out: Growth inhibition percentage
How it was run: as §1

BT-549 = conditions: Homo sapiens; Breast Cancer BT-549; 10^−5 M; read-out: Growth inhibition percentage
How it was run: as §1

A498 = conditions: Homo sapiens; Renal Cancer A498; 10^−5 M; read-out: Growth inhibition percentage
How it was run: as §1

PC-3 = conditions: Homo sapiens; Prostate Cancer PC-3; 10^−5 M; read-out: Growth inhibition percentage
How it was run: as §1

MCF7 = conditions: Homo sapiens; Breast Cancer MCF7; 10^−5 M; read-out: Growth inhibition percentage
How it was run: as §1

HS 578T = conditions: Homo sapiens; Breast Cancer HS 578T; 10^−5 M; read-out: Growth inhibition percentage
How it was run: as §1

T-47D = conditions: Homo sapiens, T47D; Breast Cancer T-47D; 10^−5 M; read-out: Growth inhibition percentage
How it was run: as §1

SF-268 = conditions: Homo sapiens; CNS Cancer SF-268; 10^−5 M; read-out: Growth inhibition percentage
How it was run: as §1

TK-10 = conditions: Homo sapiens; Renal Cancer TK-10; 10^−5 M; read-out: Growth inhibition percentage
How it was run: as §1

MDA-MB-468 = conditions: Homo sapiens; Breast Cancer MDA-MB-468; 10^−5 M; read-out: Growth inhibition percentage
How it was run: as §1

SK-MEL-2 = conditions: Homo sapiens; Melanoma SK-MEL-2; 10^−5 M; read-out: Growth inhibition percentage
How it was run: as §1

COLO 205 = conditions: Homo sapiens; Colon Cancer COLO 205; 10^−5 M; read-out: Growth inhibition percentage
How it was run: as §1

MDA-MB-231/ATCC = conditions: Homo sapiens; Breast Cancer MDA-MB-231/ATCC; 10^−5 M; read-out: Growth inhibition percentage
How it was run: as §1

ACHN = conditions: Homo sapiens; Renal Cancer ACHN; 10^−5 M; read-out: Growth inhibition percentage
How it was run: as §1

LOX IMVI = conditions: Homo sapiens; Melanoma LOX IMVI; 10^−5 M; read-out: Growth inhibition percentage
How it was run: as §1

HT29 = conditions: Homo sapiens, HT-29; Colon Cancer HT29; 10^−5 M; read-out: Growth inhibition percentage
How it was run: as §1

SK-MEL-28 = conditions: Homo sapiens; Melanoma SK-MEL-28; 10^−5 M; read-out: Growth inhibition percentage
How it was run: as §1

NCI-H23 = conditions: Homo sapiens; Non-Small-Cell Lung Cancer NCI-H23; 10^−5 M; read-out: Growth inhibition percentage
How it was run: as §1

NCI-H522 = conditions: Homo sapiens; Non-Small-Cell Lung Cancer NCI-H522; 10^−5 M; read-out: Growth inhibition percentage
How it was run: as §1

CCRF-CEM = conditions: Homo sapiens; Leukemia CCRF-CEM; 10^−5 M; read-out: Growth inhibition percentage
How it was run: as §1

SNB-75 = conditions: Homo sapiens; CNS Cancer SNB-75; 10^−5 M; read-out: Growth inhibition percentage
How it was run: as §1

KM12 = conditions: Homo sapiens; Colon Cancer KM12; 10^−5 M; read-out: Growth inhibition percentage
How it was run: as §1

HCT-116 = conditions: Homo sapiens; Colon Cancer HCT-116; 10^−5 M; read-out: Growth inhibition percentage
How it was run: as §1

786-0 = conditions: Homo sapiens; Renal Cancer 786-0; 10^−5 M; read-out: Growth inhibition percentage
How it was run: as §1

OVCAR-3 = conditions: Homo sapiens; Ovarian Cancer OVCAR-3; 10^−5 M; read-out: Growth inhibition percentage
How it was run: as §1

Compound | inhibition at 10 µM (CAKI-1) [%] | inhibition at 10 µM (SW-620) [%] | inhibition at 10 µM (NCI/ADR-RES) [%] | inhibition at 10 µM (SK-OV-3) [%] | inhibition at 10 µM (NCI-H460) [%] | inhibition at 10 µM (BT-549) [%] | inhibition at 10 µM (A498) [%] | inhibition at 10 µM (PC-3) [%] | inhibition at 10 µM (MCF7) [%] | inhibition at 10 µM (HS 578T) [%] | inhibition at 10 µM (T-47D) [%] | inhibition at 10 µM (SF-268) [%] | inhibition at 10 µM (TK-10) [%] | inhibition at 10 µM (MDA-MB-468) [%] | inhibition at 10 µM (SK-MEL-2) [%] | inhibition at 10 µM (COLO 205) [%] | inhibition at 10 µM (MDA-MB-231/ATCC) [%] | inhibition at 10 µM (ACHN) [%] | inhibition at 10 µM (LOX IMVI) [%] | inhibition at 10 µM (HT29) [%] | other results
COC(=O)C=C1SC(=NNC(=O)c2cc3ccc2CCc2ccc(cc2)CC3)N(Cc2ccccc2)C1=O [Compound 3b] | 84.4 | 81.8 | 29.6 | 0 | 6.29 | 89.7 | 53.9 | 82.2 | 67.3 | 12.6 | 106 | 14.9 | 4.53 | 78.9 | 14.4 | 27.3 | 43.2 | 34.2 | 93.8 | 87.6 | inhibition at 10 µM (SK-MEL-28): 0%; inhibition at 10 µM (NCI-H23): 22.6%; inhibition at 10 µM (NCI-H522): 84.1%; inhibition at 10 µM (CCRF-CEM): 96.2%; inhibition at 10 µM (SNB-75): 48.8%; inhibition at 10 µM (KM12): 34.9%; inhibition at 10 µM (HCT-116): 50.5%; inhibition at 10 µM (786-0): 50.5%; inhibition at 10 µM (OVCAR-3): 79.7%
COC(=O)C=C1SC(=NNC(=O)c2cc3ccc2CCc2ccc(cc2)CC3)N(c2ccccc2)C1=O [Compound 3a] | 94.7 | 92.6 | 68.6 | 0 | 39.4 | 64.5 | 50.8 | 136 | 76.8 | 22.1 | 138 | 27.5 | 84.8 | 100 | 13 | 52.3 | 67.5 | 30.7 | 128 | 113 | inhibition at 10 µM (SK-MEL-28): 17.5%; inhibition at 10 µM (NCI-H23): 59.6%; inhibition at 10 µM (NCI-H522): 58.5%; inhibition at 10 µM (CCRF-CEM): 87%; inhibition at 10 µM (SNB-75): 54.3%; inhibition at 10 µM (KM12): 91.5%; inhibition at 10 µM (HCT-116): 96%; inhibition at 10 µM (786-0): 100%; inhibition at 10 µM (OVCAR-3): 106%
